According to patent US20260274794A1, “COMPOUNDS, COMPOSITIONS, AND METHOD OF INHIBITING TAU PROTEIN AND ALPHASYNUCLEIN AGGREGATION” (Purdue Research Foundation, priority 2023, published 2026):
Entries after “also recorded” stand apart in the source; their conditions may differ.

Columns and labels:
[1] = target: T1, tau isoform 2N4R (Homo sapiens, UniProt P10636); assay: ThT fluorescence assay of tau isoform 2N4R fibril formation; format: biochemical; details: for effect on tau isoform 2N4R fibril formation (ThT): compound 100 μM, tau 2N4R 6 μM; for tau isoform 2N4R fibrillization, ThT dose-response: compound 3.125-100 μM, tau 6 μM, plateau phase
T1 construct: made in house; host or cells: E. coli BL21 (DE3), vector pRK172
T1 sequence (P10636 1-441 isoform P10636-8): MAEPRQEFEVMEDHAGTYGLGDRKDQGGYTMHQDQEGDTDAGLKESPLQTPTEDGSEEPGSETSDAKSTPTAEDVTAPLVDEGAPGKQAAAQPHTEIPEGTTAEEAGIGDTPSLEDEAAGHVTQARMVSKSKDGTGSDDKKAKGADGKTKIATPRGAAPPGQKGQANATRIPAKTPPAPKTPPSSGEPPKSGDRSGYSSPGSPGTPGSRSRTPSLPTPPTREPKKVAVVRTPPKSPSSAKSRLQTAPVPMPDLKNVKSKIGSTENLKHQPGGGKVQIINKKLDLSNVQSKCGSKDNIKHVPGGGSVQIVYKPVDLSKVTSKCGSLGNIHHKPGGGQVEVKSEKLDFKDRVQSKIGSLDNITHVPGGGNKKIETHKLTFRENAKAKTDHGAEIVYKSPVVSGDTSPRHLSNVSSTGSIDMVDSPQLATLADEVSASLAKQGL
Description: ThT fluorescence is routinely established assay to follow the kinetics of α-syn fibril formation with different drug candidate treatments. Compounds were first tested at a final of concentration of 100 μM and α-syn and 2N4R tau were prepared at 2 μM and 6 μM, respectively. Compounds with highest anti-fibrillary activity were tested at 3.125, 6.25, 12.5, 25, 50, and 100 μM to obtain dose-response curves.
Concerning the non-phosphorylated tau (isoform 2N4R) kinetics of fibril formation, ThT was performed with the tau protein solution was diluted to a final concentration of 6 μM in PBS (pH 7.4) supplemented with 1.5 μM heparin, 20 μM ThT, 2.5 mM DTT, and 100 μM compound. Aliquots of the diluted protein solution (100 μL each) were pipetted into the wells of a 96-well plate, and a Teflon ball was added to each well. The plate was incubated at 37° C. with constant shaking at 1,000 rpm in a Tecan Stark plate reader. ThT fluorescence was measured every 15 min with excitation and emission wavelengths of 440 nm and 480 nm, and the data were plotted using GraphPad Prism.
Various structural analogs were first tested at a final concentration of 100 μM in the presence of tau 2N4R at 6 μM. Compounds 2, 4-8, and 17 were pre-selected with α-syn ThT assay prior to evaluation on the tau isoform 2N4R.

[2] = target: T1, tau isoform 2N4R; assay: PICUP assay of tau isoform 2N4R oligomerization; format: biochemical; details: compound 50 μM
Description: (§1) To force the oligomerization by cross-linking, α-syn (from Rpeptide, LLC) and tau isoform 2N4R were diluted in 10 mM phosphate buffer (pH 7.4) to reach a final concentration of 10 μM [27]. Different compounds were added to the protein solution at a final concentration of 50 μM, resulting in a molar ratio of 1:5. To confirm the gradual effect of the compounds on the inhibition of α-syn oligomerization, compounds were tested at final concentration of 3.125, 6.25, 12.5, 25, and 50 μM. The controls consisted of samples without light exposition, without Ru(bpy), and without compound (i.e., 0.125% DMSO). The cross-linking reaction was initiated by the addition of 2 μL of Ru(bpy) (300 μM final concentration) and 2 μL ammonium persulfate (6 mM final concentration). Samples were irradiated immediately. Light exposition was of 1 second duration for ca-syn and 3 second duration for tau isoform 2N4R, with a 53 W (120 V) incandescent lamp installed in a homemade dark-box. Each tube contained a final volume of 20 μL. After irradiation, 8.3 μL. of Lammeli loading buffer containing 15% β-mercaptoethanol was immediately added to the solution, followed by incubation at 95° C. for 10 minutes. The cross-linked samples were separated on a 16% SDS-Page gel and visualized by Coomassie blue staining.
(§2) One end point used to verify the propensity of misfolded protein in the drug discovery field is the inhibition of oligomer formation. The photo-induced cross-linking of unmodified proteins (PICUP) assay was used to investigate α-syn (60 μM) and tau isoform 2N4R (6 μM) oligomerization in the presence of eight amide compounds (2, 4, 5, 6, 7, 8, 13, and 17 at 50 μM, i.e., ~molar ratio 1:8 for tau). After being subjected to short light exposure, α-syn and tau were cross-linked and Coomassie-stained resolved as a higher molecular weight compared to control (0.125% DMSO). […] Compound 13 was used as a negative control for the α-syn PICUP.
(§3) PICUP assays were performed with different concentrations (50 μM, 25 μM, 12.5 μM, 6.25 μM, 3.125 μM; control=0.125% DMSO) for each lead compound.

[3] = test system: M17D-TR/αS-3K::YFP neuroblastoma cells; assay: α-Syn inclusion assay in dox-inducible neuroblastoma cells; format: cell-based; details: for reduction of inclusions: lower concentrations (below 40 μM)
Description: Dox-inducible neuroblastoma cells M17D-TR/αS-3K::YFP were used according to the published experimental procedure. For this cell-based assay, the cellular density consisted of 30,000 cells per well in a 96-well plate format. After 24 h of seeding the plates, compounds were introduced at ranging concentrations of 5 to 40 μM for a period of 24 h. After, the induction of the αS-3K::YFP transgene expression was initiated by adding dox (1 ug per mL, final concentration in culture media). Cells were incubated in the Incucyte Zoom 2000 platform (Essen Biosciences), where the acquisition of images (green, bright field) occurred continuously. After 48 hours of induction, inclusion formation and cell growth were assessed. To determine the level of different proteins by western blotting, α-syn monoclonal antibody 41312 (Thermofisher, Waltham, MA; 1:1000) and GAPDH polyclonal antibody (Sigma-Aldrich, St. Louis, MO, G9545; 1:5000) were used.
To evaluate the effects of compounds on inclusion formation and cell survival, M17D neuroblastoma cells that express an α-syn-derived αS-3K::YFP fusion protein in a doxycycline-inducible fashion were used. The cells were treated with 0.1% DMSO (control) and compounds 13, 2, 8, and 17 at various concentrations at t=24 hrs. Cells were induced with dox at t=48 hours. Punctate YFP signals were measured and normalized to 0.1% DMSO at t=96 hours. Eight independent experiments (N=8; n=14; except DMSO, n=30) were performed. The familial PD-linked α-syn missense mutation E46K is amplified by α-syn E35K+E46K+E61K (=αS3K), which results in round cytoplasmic α-syn-based inclusions in cultured cells. αS3K expression is responsible for cell stress/toxicity and delayed growth of neuroblastoma cells. […] Therefore, this assay was selected to evaluate the effect of the compound 13, as a weak to non-inhibitor of aggregation, and the three best anti-aggregation inhibitors, namely compounds 2, 8, and 17 (FIG. 6). […] Western blot analyses for total α-syn, normalized to calnexin (loading control), were performed to determine the compound effect on α-syn protein level due to degradation or non-specific effect on transgene expression.

[4] = Brain and plasma concentration after administration; format: in vivo; details: 1 mg/kg
Description: For compound 8, the brain concentration and plasma concentration ratio is equal to more than 1 for the 3 time points (0.08, 0.5 and 1 hour) where the compound was detected, which is adequate.

[5] = Mouse microsomal stability; format: in vitro ADME
[6] = target: T2, α-synuclein (α-syn) (Homo sapiens, UniProt P37840); assay: Thioflavin T (ThT) fluorescence assay of α-syn fibril formation; format: biochemical; details: compound 3.125-100 μM, α-syn 2 μM, plateau phase
T2 construct: purchased rPeptide, LLC (Watkinsville, GA)

[7] = target: α-syn (Homo sapiens, UniProt P37840); assay: PICUP assay of α-syn oligomerization; format: biochemical; design: purchased rPeptide, LLC (Watkinsville, GA); details: for α-syn oligomerization (PICUP crosslinking): compound 50 μM; for α-syn oligomer formation, PICUP dose-response: compound 3.125-50 μM
Description: as §1, §2, §3

effect on tau isoform 2N4R fibril formation (ThT) [1]	Half-life [4]	Kp ([4]; brain and plasma, 0.08, 0.5 and 1 hour, read-out: brain concentration and plasma concentration ratio)	Mouse microsomal stability [5]	α-syn oligomerization (PICUP crosslinking) [7]	SMILES	tau isoform 2N4R fibrillization, ThT dose-response [1]	tau isoform 2N4R oligomerization (PICUP crosslinking) [2]	toxicity (confluence) ([3]; 40 μM)	inclusion formation ([3]; 40 μM, M17D αS3K cells)	α-syn protein level (Western blot) ([3]; low concentration (5-10 μM) only)	reduction of inclusions [3]	detection of compound over time [4]	α-syn fibrillization, ThT dose-response [6]	α-syn oligomer formation, PICUP dose-response [7]
good inhibitory effect	presumed to be short	> 1	70%	effectively prevented this crosslinking	O=C(Nc1cccc2[nH]ccc12)c1ccc(F)cc1 [Compound 8, 4-fluoro-N-(1H-indol-4-yl)benzamide]	reduction in protein fibrillization when subjected to higher concentrations	effectively prevented this crosslinking; also recorded: prevented tau 2N4R oligomer formation	small degree of toxicity	reduced inclusion formation	reduced α-syn levels	None of these compounds exhibited a significant reduction of inclusions	not detected beyond the time point of 60 min	reduction in protein fibrillization when subjected to higher concentrations	prevented α-syn oligomer formation in a dose-dependent manner
weaker anti-fibrilization effect	–	–	–	effectively prevented this crosslinking	O=C(Nc1cccc2[nH]ccc12)c1ccccc1 [Compound 2, N-(1H-indol-4-yl)benzamide]	reduction in protein fibrillization when subjected to higher concentrations	effectively prevented this crosslinking; also recorded: prevented tau 2N4R oligomer formation	–	–	–	None of these compounds exhibited a significant reduction of inclusions	–	reduction in protein fibrillization when subjected to higher concentrations	prevented α-syn oligomer formation in a dose-dependent manner
increased the fluorescence intensity	–	–	–	–	O=C(Nc1ccc2[nH]ccc2c1)c1ccccc1Cl [Compound 13, 2-chloro-N-(1H-indol-5-yl)benzamide]	–	–	–	–	–	None of these compounds exhibited a significant reduction of inclusions	–	–	–
